Holding throughout (experiment): growth of human tumour cells (NCI), 48 h
The subject of test [1] is EKVX NSCLC.
In test [2] the test system is DLD-1 colon.
Test [3] deals with LOX IMVI melanoma.
Test [4] relates to DMS 114 small cell lung.
Test [5] has as its system M19-MEL melanoma.
Test [6] deals with CAKI-1 renal.
Test [7] has as its system LXFL 529 NSCLC.
Test [8] concerns UO-31 renal.
For test [9], the system named is RPMI-8226 leukemia.
For test [10], the system named is NCI-H226 lung.
The test system of test [11] is SR leukemia.
Test [12] concerns HS 578T breast.

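Compound exposure: 48 hours, 5 concentrations, 96-well plates. The concentration for full growth arrest is given as TGI.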

For the compound `COc1cc(C[S+]2CCCC2)c(SC)cc1C[S+]1CCCC1`, the TGI in test [1], in test [2], in [3], in test [4], in test [5] and in test [6] was > 100 µM in each case. Besides, the TGI in test [7], in test [8], in test [9] and in test [10] was > 100 µM throughout.

Regarding `O=C(c1ccc(O)cc1)C1c2c3c(cc(O)c2C(c2ccc(O)cc2)C1c1cc(O)cc(O)c1)OC(c1ccc(O)cc1)C3c1cc2c(cc1O)OC(c1ccc(O)cc1)C2c1cc(O)cc(O)c1` (stereo not given), the TGI in test [1], in [2], in test [3], in [11], in test [4] and in test [5] was > 12.5 µM throughout. Also, the TGI in [6], in test [7], in [8], in test [9] and in test [10] was > 12.5 µM in each case.

For the compound `COc1ccc(C2S/C(=C\c3ccccc3O)C(=O)N2NC(=O)Cc2ccccc2)cc1` (stereo not given), the TGI in test [2], in test [3], in [11], in test [4], in [5] and in test [6] was > 100 µM each time. For the same compound, the TGI in test [7], in test [8], in [9] and in test [10] was > 100 µM each time.

With `C[C@]12C=CC(=O)C=C1CC[C@H]1[C@@H]3C[C@@H](O)[C@](O)(C(=O)CO)[C@@]3(C)C[C@H](O)[C@@]12F`, the TGI in [1], in [2], in [3], in test [11], in [4] and in [5] was > 100 µM each time. The TGI in test [6], in [7], in test [8], in test [9] and in test [10] was > 100 µM in each case.

`O=c1[nH]c(-c2ccc3ccccc3c2)nc2ccccc12`: the TGI was > 100 µM in test [1]; > 100 µM in test [3]; > 100 µM in [11]; > 100 µM in [12]; > 100 µM in test [6]; 60.9 µM in test [8]. For the same compound, the TGI in test [9] and in [10] was > 100 µM each time.

As for `C=C1CC(c2ccc(OCCCN3C(=O)c4ccccc4C3=O)c(OC)c2)OC1=O` (stereo not given), the TGI came to 30.6 µM in test [1]; 4.53 µM in test [3]; 2.72 µM in [11]; 32.4 µM in [12]; 5.16 µM in [6]; 7.8 µM in [8]. The TGI in [9] was 6.69 µM; in [10], 23.4 µM.

`CCCCCN=Cc1c(O)c(O)c(C(C)C)c2cc(C)c(-c3c(C)cc4c(C(C)C)c(O)c(O)c(C=NCCCCC)c4c3O)c(O)c12`: the TGI was > 100 µM in test [1]; 16.7 µM in [3]; > 100 µM in [11]; > 100 µM in test [12]; 97.6 µM in test [6]; 41.1 µM in test [8]. For the same compound, the TGI is > 100 µM in test [9] and 88.4 µM in [10].

Consider `O=[N+]([O-])c1ccccc1S(=O)(=O)c1cc(Cl)cc2c1NCCC2`, for which the TGI in [1], in test [3], in test [11], in [12], in test [6] and in test [8] was > 100 µM in each case. Moreover, the TGI in test [9] and in [10] was > 100 µM throughout.

With `CNC(=S)N(C)C(=S)Nn1c(=O)c(C)nn(C)c1=S`, the TGI in test [1], in [2], in test [3], in [11], in test [4] and in [5] was > 100 µM in each case. Moreover, the TGI in test [7], in test [9] and in test [10] was > 100 µM in each case.

Turning to `CC(C)(C)OC(=O)NCC(O)CNC(=O)OC(C)(C)C`, the TGI in test [1], in [3], in test [11], in test [12], in test [6] and in test [8] was > 100 µM each time. In addition, the TGI in test [9] and in test [10] was > 100 µM in each case.

`CC(=O)c1c2c(cc3c1CC1(Cc4ccccc4C1=O)C3)CCC2` (stereo not given): the TGI was 63.9 µM in [1]; 55.7 µM in test [3]; 47.9 µM in test [11]; > 100 µM in [12]; 66 µM in test [6]; > 100 µM in test [8]. The TGI amounted to 39.1 µM in [9] and 72.4 µM in [10].

Consider `O=C(O)/C=N\Nc1nc2ccccc2[nH]1`, for which the TGI in test [1], in test [3], in test [11], in test [12], in test [6] and in test [8] was > 100 µM in each case. In addition, the TGI in test [9] and in [10] was > 100 µM throughout.

Turning to `COCCOCc1nc(C#N)c(N)o1`, the TGI in test [1], in test [3], in [11], in test [12], in test [6] and in test [8] was > 100 µM each time. For the same compound, the TGI in test [9] and in test [10] was > 100 µM throughout.

The record behind these values is PubChem BioAssay (NCI).
